{"source": "patent US20250062040A1", "about": "“COMPUTER-BASED SYSTEMS FOR ACQUIRING AND ANALYZING OBS[…] DATA” (priority 2021, published 2025)", "key": {"[1]": {"assay": "pEEG deep learning drug class classifier", "assay_type": "in vivo", "settings": "classifier trained with a set that did not include the drug, FIG. 25", "quoted_text": "Briefly, the network may be based on a bidirectional Long Short-Term Memory (LSTM, 32 hidden units) layer, two fully connected layers (“elu and “softmax” activations), batch normalization and dropout layers. The model may be trained using cross-entropy loss function and “adam” optimizer, for at least 30-50 epochs. The last layer of the model may be a dense layer, which may provide probabilities for more than a dozen drug classes.\nIn some embodiments, to improve the robustness of the predictive model, independent implementations of a general model architecture may be built by randomly initializing the weights for the RNN. Final predictions may be derived from the model with highest accuracy, or from the average such as the median or mean results from all trained models. To check the accuracy of the resulting model system, different cross validation approaches may be used such as a n-samples-out, or n-doses-out, and/or a whole-drug-out, where an n-samples subset, an n-doses subset, and/or a whole drug, respectively, may be systematically removed from the training dataset, and the rest of the drugs may be used for training a new model. The excluded data may then be used for model validation as a test set. Model prediction may be done at a sample level, so as to get a prediction for a given drug-dose. […]"}, "[2]": {"assay": "psychedelic-related behaviors (HTR, ESH, ELO) in behavioral platform videos", "assay_type": "in vivo, mice", "from_the_text": "FIG. 71 illustrates a response curve for R-(−)-4-iodo-2,5-dimethoxyamphetamine (DOI), showing anxiolytic, another therapeutic signal, and the head twitch response (HTR) in accordance with one or more embodiments of the present disclosure. FIG. 71 represents a signature of DOI in a behavioral platform, where multiple classes can be collapsed into a few classes of interest. For example, multiple classes can be collapsed into five classes of interest for simplicity.\nIn some embodiments, the first step may be to generate a collection of ground-truth examples by manually identifying features corresponding to behaviors of interest (e.g., using a labelling software or platform to add labels identifying such features). Each experimental session can be recorded in terms of precise start and end frame which can set the predefined duration of the experimental session. For manual identification purposes, the system may use a top camera view, at a 50% slower viewing speed, although other angles from the other cameras and other sensors such as piezoelectric and thermal sensors may also be used, and the resulting data integrated. Class analysis (e.g., FIG. 71), on the other hand, may include data acquired from all sensors of a behavioral platform.\nThe disclosed embodiments can extract behavioral features corresponding to exemplary behaviors. The disclosed embodiments are not limited to any particular implementation of these features. In some embodiments, a behavioral feature can be implemented as a time-stamped indication that a behavior occurred at that time, or a Boolean value in a time series indicating the occurrence of a behavior. In some embodiments, a training dataset including observational data and corresponding, manually identified features can be used to train the machine learning classifier.\nFIG. 76 illustrates graphs illustrating a quantification of psychedelic-related behaviors detected in behavioral platform videos: ear scratch with hind paw (ESH), head twitch response (HTR), and elongation-contraction (ELO) for LSD and DOI at two doses in accordance with one or more embodiments of the present disclosure. FIG. 76 indicates a number of occurrences of HTRs, ESH, and ELOs, in behavioral platform videos of mice treated with DOI, LSD or vehicle, in triplicates, were recorded during the periods of rest for a total of 12 minutes for each subject."}, "[3]": {"assay": "SmartCube / behavioral platform total activity and Class signature", "assay_type": "in vivo", "from_the_text": "In some embodiments, one or more techniques described herein may quantify at least one activity score that may be quantified based on a discriminability score between at least two datasets, where the discriminability score may refer to an accuracy of a classifier, or a quantity derived therefrom. At least one dataset is a control group. In some embodiments, one or more techniques described herein may quantify at least one similarity value, which is the complement of the at least one activity value, where at least two groups are compared.\nIn some embodiments, one or more techniques described herein may calculate the activity score between the two groups using, for example, without limitation, a binary machine learning classifier. In some embodiments, a discriminability score of the at least two groups, as assessed by the classifier, may be used as the at least one activity score, representing how phenotypically different the two groups are. For example, the at least two groups may refer to a treatment group and a vehicle group associated with the at least two datasets.\nIn some embodiments, one or more techniques described herein may utilize a machine learning algorithm to perform the following steps: obtaining a plurality of subsamples, where a number, k, of iterations of the plurality of subsamples of a larger group match sample size n of a smaller group. […]"}, "[4]": {"assay": "SmartCube diagonal index (DD) similarity ranking and psychedelic profile", "assay_type": "in vivo", "settings": "ranked among 90 reference drugs", "quoted_text": "The similarity score for each of the dose-dose pairs of the T and R drugs was computed and used to calculate the diagonal index for each T-R drug pair or DDTiRj. For each Ti drug, the Rj drugs were then ranked by the corresponding DDTiRj."}, "[5]": {"assay": "eye temperature by automated thermographic system of behavioral platform", "assay_type": "in vivo, mice", "settings": "various doses, FIG. 39", "from_the_text": "In some embodiments, with regard to image calibration, in an experimental session, actual Peltier temperatures may be logged and saved along with the thermal camera video. The logged Peltier temperatures in Celsius can be paired to the optical density (OD) levels measured at the two Peltier ROIs in each corresponding frame, so that a linear calibration curve can be used to convert the OD of measured eye ROIs to degrees Celsius.\nIn some embodiments, the subject body, such as a mouse, can be segmented based on the optical density distribution on each frame. The contour of the mouse can be masked by finding the largest eight-connected objects in the binarized image as shown in FIG. 36. […] The size of the eye region relative to the mask and shape properties such as ‘Eccentricity’ (ratio of the distance between the foci of the ellipse and its major axis length) and ‘Solidity’ (proportion of the pixels in the convex hull that are also in the region, computed as Area/ConvexArea) can be measured to filter out false positives, when those parameters may be outside of the range learned from manually annotated ground truth examples.\nIn some embodiments, with regard to feature extraction, the average OD of automatically detected eye ROIs can be converted to Celsius based on the calibration curve. […]"}, "[6]": {"system": "Q175 heterozygous (HET) mice model of Huntington Disease", "assay": "DBSA query with Q175 HET target signature", "assay_type": "in vivo", "settings": "Q175 HET at 6 months vs WT", "from_the_text": "In some embodiments, illustrative computing devices of present disclosure can be programmed with one or more techniques of the present disclosure to screen active reference compounds against an animal model of a neurodegenerative disease. As an example, in an application of DBSA, the Q175 heterozygous (HET) mice model of Huntington Disease was used to generate a target signature. Male and female cohorts of the Q175 HET model mice at 6 months were compared against the associated wild type (WT) controls. The DBSA Target signature model for the Q175 HET at 6 months is, for example, illustrated in FIG. 56. The target signature was used to query a database containing list signatures for reference compounds profiled at multiple doses.\n(§1) Of interest was the identification of the atypical antidepressant tianeptine, currently not used for the treatment of HD in the clinic. […] A control group of WT mice was treated equally with saline. […] The beneficial effect of tianeptine was quantified using DRFA, which transforms the original subject feature profile to a non-redundant, decorrelated ranked 2D features space. The non-redundant decorrelated ranked features space was used to calculate the discrimination between control (WT treated with saline) and disease group (Q175 HET group treated with saline). The disease group (Q175 HET) treated with tianeptine was then projected onto this 2D space and its proximity to the control group was calculated."}, "[7]": {"assay": "DBSA query with scopolamine target signature", "assay_type": "in vivo", "from_the_text": "In some embodiments, illustrative computing devices of the present disclosure can be programmed with one or more techniques of the present disclosure to identify a novel cognitive enhancer compound by querying a large library of compounds profiled in by a behavioral platform. This example is based on a hypothesis that compounds with a drug-induced behavioral data profile that is reversed to that of scopolamine, which impairs cognition, are potentially cognitive enhancers. Other ways to impair cognition, such as other drugs or genetic manipulations, can be used to generate similar hypotheses.\nThe target signature was used to query a library of list signatures associated with active library and reference compounds to rank the compounds by their capacity to reverse the behavioral response to scopolamine."}, "Q175 HET mice": {"system": "Q175 HET mice", "assay": "treatment of Q175 HET mice, recovery quantified using DRFA", "assay_type": "in vivo", "settings": "20 mg/kg, FIG. 62", "description": "as §1"}, "[8]": {"settings": "periods of rest, total 12 minutes per subject, vs vehicle, two doses, FIG. 76"}}}
{"smiles": "CN(C)CCC=C1c2ccccc2CCc2ccccc21", "note": "[Amitriptyline]", "values": [{"measurement": "therapeutic class signature by pEEG classifier", "setting": "[1]", "value": "clean antidepressant signal"}]}
{"smiles": "COc1cc(C[C@@H](C)N)c(OC)cc1I", "note": "[DOI, R-(−)-4-iodo-2,5-dimethoxyamphetamine]", "values": [{"measurement": "head twitch response (HTR) dose-response", "setting": "[2]; FIG. 71, two doses", "value": "high at both doses"}, {"measurement": "number of occurrences of HTRs", "setting": "[2]; [8]", "value": "most robust increase"}, {"measurement": "number of occurrences of ear scratches (ESH)", "setting": "[2]; [8]", "value": "most robust increase"}, {"measurement": "class signal of behavioral platform classifier", "setting": "[3]; FIG. 71, classes collapsed into five classes", "value": "predominant anxiolytic therapeutic signal"}]}
{"smiles": "CCN(CC)C(=O)[C@@H]1C=C2c3cccc4[nH]cc(c34)C[C@H]2N(C)C1", "note": "[LSD, lysergic acid diethylamide]", "values": [{"measurement": "number of occurrences of ear scratches (ESH)", "setting": "[2]; [8]", "value": "did not result in occurrences of ear scratches"}, {"measurement": "number of occurrences of elongation-contraction (ELO)", "setting": "[2]; [8]", "value": "significant increase in the number of ELOs"}, {"measurement": "total activity as a function of dose", "setting": "[3]; calculated against vehicle control, activity rescaled 0% to 100%, threshold 70%, FIG. 64", "value": "only the 3 mg/kg and 5 mg/kg being different from vehicle in a statistically significant manner"}, {"measurement": "rank of diagonal index DDTT (similarity of a second run to a previous run of the same drug)", "setting": "[4]", "value": "very high"}]}
{"smiles": "CNC(C)Cc1ccc2c(c1)OCO2", "note": "(centres unmarked) [MDMA, 3,4-methylenedioxymethamphetamine]", "values": [{"measurement": "eye temperature", "setting": "[5]", "value": "dose-dependent increase of eye temperature"}]}
{"smiles": "CC(NC(C)(C)C)C(=O)c1cccc(Cl)c1", "note": "(centres unmarked) [bupropion]", "values": [{"measurement": "therapeutic class signature by pEEG classifier", "setting": "[1]", "value": "more stimulant profile"}, {"measurement": "DBSA prediction against Q175 HET target signature", "setting": "[6]", "value": "top predictions"}]}
{"smiles": "CN1C(=O)CN=C(c2ccccc2)c2cc(Cl)ccc21", "note": "[diazepam]", "values": [{"measurement": "rank of diagonal index DDTT (similarity of a second run to a previous run of the same drug)", "setting": "[4]", "value": "third out of 90"}]}
{"smiles": "COc1cc2c(cc1OC)C(=O)C(CC1CCN(Cc3ccccc3)CC1)C2", "note": "(centres unmarked) [donepezil]", "values": [{"measurement": "DBSA reverse list signature to scopolamine target signature", "setting": "[7]; FIG. 60", "value": "among the top reverse list signature predictions"}]}
{"smiles": "COC(=O)C(c1ccccc1)C1CCCCN1", "note": "(centres unmarked) [methylphenidate]", "values": [{"measurement": "DBSA prediction against Q175 HET target signature", "setting": "[6]", "value": "top predictions"}]}
{"smiles": "NC(=O)C[S+]([O-])C(c1ccccc1)c1ccccc1", "note": "(centres unmarked) [modafinil]", "values": [{"measurement": "DBSA prediction against Q175 HET target signature", "setting": "[6]", "value": "top predictions"}]}
{"smiles": "CN1[C@@H]2C[C@@H](OC(=O)[C@H](CO)c3ccccc3)C[C@H]1[C@@H]1O[C@@H]12", "note": "[scopolamine]", "values": [{"measurement": "DBSA similarity to scopolamine target signature", "setting": "[7]; FIG. 59, at a different dose than the one used for the DBSA model", "value": "among the most similar compounds"}]}
{"smiles": "CN1c2ccccc2C(NCCCCCCC(=O)O)c2ccc(Cl)cc2S1(=O)=O", "note": "(centres unmarked) [tianeptine]", "values": [{"measurement": "DBSA prediction against Q175 HET target signature", "setting": "[6]", "value": "novel prediction"}, {"measurement": "rescue of behavioral phenotype of Q175 HET mice", "setting": "Q175 HET mice; acutely", "value": "significantly rescued the behavioral phenotype"}, {"measurement": "rescue of behavioral phenotype of Q175 HET mice", "setting": "Q175 HET mice; chronically (4-week regimen)", "value": "significantly rescued the behavioral phenotype"}]}
